Measurements taken from the METLIN SMRT retention time set (Domingo-Almenara et al. 2019).

Assay: gradient 5% acetonitrile 3 min, to 50% in 2 min, to 85% in 15 min, held 3 min, 100 µL/min
Settings: column: Zorbax Extend-C18 2.1 x 50 mm; eluents: water / acetonitrile, 0.1% formic acid
In short: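 Pure standards were run in mixtures of ~100 molecules by HPLC coupled to a quadrupole time-of-flight mass spectrometer. The column was a Zorbax Extend-C18 (2.1 × 50 mm, 1.8 μm) at 100 μL/min, with water and acetonitrile each containing 0.1% formic acid, in positive and negative ionization mode. Dead and dwell volumes were 40 μL and 900 μL. Retention time was taken from computationally picked adduct peaks, each manually inspected, with data collected over 3 months.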

RP-LC retention time [s] | Compound
1070 | COc1ccc(-c2noc(-c3nc(-c4ccccc4OC)no3)n2)cc1OC
658 | CCNC(=O)CN1CCN(Cc2ccccc2F)C1=O
726 | Cc1cc2c(N3CCCC(C(=O)N4CCN(c5ccc(F)cc5)CC4)C3)nccc2s1 (centres undefined)
1240 | O=C(NCCC1=CCCCC1)C(=O)NCC1(c2cccs2)CCCC1
935 | O=C(NCc1ccc(C(F)(F)F)cc1)c1cnc(-c2ccccc2)nc1-c1ccncc1
957 | O=C(Nc1nccs1)c1cn(Cc2ccc(F)cc2)cc2c(=O)n(-c3ccccc3)nc1-2
703 | COc1cc(Nc2cc(C(=O)N3CCC(C)CC3)nc3ccc(C)cc23)cc(OC)c1OC
638 | CS(=O)(=O)N1CCCN(C(=O)c2ccccc2)CC1
786 | CCC(=O)N1CCc2c(C(=O)N3CCN(c4ccccc4OC)CC3)cccc21
732 | COc1ccc(CNC(=O)c2ccc3c(c2)nc2n3CCN(c3ccccc3)C2=O)cc1
903 | Cn1nc(C(=O)Nc2ccccc2)c2c1CCN(C(=O)Nc1ccccc1Br)C2
834 | COc1ccc(F)cc1S(=O)(=O)N1CCc2nn(CC3CC3)c(=O)n2CC1
954 | CCCC(=O)n1nc(C)c(S(=O)(=O)N2CCOCC2)c1C
597 | c1cncc(-c2nc(-c3ccc(-n4ccnc4)nc3)no2)c1
710 | CCn1cc(S(=O)(=O)N2CCC(c3noc(-c4cccnc4)n3)C2)cn1 (centres undefined)
586 | O=C(NCc1nnc(SCc2ccccn2)o1)c1ccccc1
915 | Cc1cc(C)n(Cc2nc(-c3ccc(NC(=O)Cc4ccccc4F)cc3)oc2C)n1
883 | CC1(C(=O)NCc2ccccc2)CCCN(S(=O)(=O)c2ccccc2)C1 (centres undefined)
900 | Cc1cc(Cl)ccc1NC(=O)c1cc2c(=O)n(CC(C)C)ccc2n1C
786 | C=CCNc1nc(-c2ccc([N+](=O)[O-])cc2)nc2ccccc12
784 | COc1ccccc1C(=O)N1CCCC1COc1ccc(C(=O)N2CCCC2)cc1 (centres undefined)
782 | O=C(c1cnccn1)N1CCCC1c1nc(-c2ccc(F)cc2F)no1 (centres undefined)

RP-LC retention time [s] | Compound
1210 | COc1ccc(NC(=O)c2c(O)c3cccnc3n(-c3ccc(F)cc3)c2=O)cc1F
715 | COc1ccc(NC(=O)Nc2cccc(-c3ccc(N4CCOCC4)nn3)c2)cc1Cl
908 | Cc1sc(-c2nc(C(C)C)cs2)cc1S(=O)(=O)N1CCN(c2ccccn2)CC1
1020 | O=C1N(c2ccc(F)cc2)c2ncccc2S(=O)(=O)N1Cc1ccccc1
570 | CCC(CO)Nc1ncc([N+](=O)[O-])c(N)n1 (centres undefined)
770 | O=C(Cc1cccc(F)c1)NC1CCN(c2ccccc2)C1=O (centres undefined)
588 | O=C(CCC[C@@H]1[C@H]2CCCN3CCC[C@@H](CN1S(=O)(=O)c1cccs1)[C@@H]23)N1CCOCC1
633 | Cc1nc(C)c(C(=O)NCC23CCCC=C2NC(=O)CC3)s1 (centres undefined)
1060 | O=C(CCC1CCCC1)N1CCc2c([nH]c3ccccc23)C1c1ccc(Cl)cc1 (centres undefined)
698 | CCc1nnc2c(=O)n(CC(=O)NCc3ccc(F)cc3)c3cccnc3n12
917 | Cc1ccc(NC(=O)C(=O)c2ccc[nH]2)cc1F
827 | Cn1c(=O)c(N2CCCC(C(=O)NCCc3ccco3)C2)nc2cccnc21 (centres undefined)
933 | O=C1CC(c2nc(-c3ccccc3)no2)CN1c1ccc2c(c1)OCCO2 (centres undefined)
783 | Cc1cc(N2CCN(S(=O)(=O)c3cc(F)ccc3C)CC2)nc(N2CCCC2)n1
914 | COc1ccc(NC(=O)Cn2nc3cc(-c4ccccc4)nc(C)n3c2=O)cc1F
590 | NC(=O)CSc1nnnn1-c1ccccc1
788 | CCn1ncc(NC(=O)c2cccc(OC)c2)c(N2CCOCC2)c1=O
957 | c1ccc(-c2nnc(Cc3nc(-c4ccc5c(c4)OCO5)no3)o2)cc1
1080 | O=C(NCc1cccs1)c1cccn1Cc1noc(-c2ccc(Cl)cc2)n1
605 | O=C(Cn1c(=O)c2cccn2c2ccc(F)cc21)N1CCN(c2ccccn2)CC1
674 | COc1ccc(NC(=O)c2cn3c(n2)CSCC3)c(C)c1
770 | O=C(CSCc1ccccc1)NCC1CCN(C(=O)Nc2ccc(F)cc2)CC1

RP-LC retention time [s] | Compound
847 | CSc1ccc(NC(=O)NC2CCN(c3ccc(F)cc3)C2=O)cc1 (centres undefined)
668 | COc1ccc(CCN(C)CCc2ccc(OC)c(OC)c2)cc1OC
773 | CCN1C(=O)COc2cc(-c3noc(C(=O)NC4CC4)n3)ccc21
931 | Cc1cc(Cl)ccc1S(=O)(=O)N1CC(c2nc(-c3ccncc3)no2)C1
685 | Cc1c(C(=O)N2CCN(C(C)C)CC2)cnn1-c1cc(-c2nc(C(C)(C)C)no2)ccn1
1000 | CCCn1ccc2sc(C)c(C(=O)NCc3ccc(F)cc3Cl)c2c1=O
940 | COc1ccc(-c2nnc(Cc3nc(-c4ccc5c(c4)OCO5)no3)o2)cc1OC
863 | CCOCCCNC(=O)Nc1c(-c2cccc(C)c2)nc2ccccn12
939 | O=C(Nc1cccc(F)c1)C1CCN(S(=O)(=O)c2cc(C(=O)N3CCCCCC3)cs2)CC1
834 | Cc1ccc(Cl)cc1NC(=O)C1CCN(S(=O)(=O)c2ccc3c(c2)NC(=O)C(C)O3)CC1 (centres undefined)
868 | Cc1ccc(CNS(=O)(=O)c2cc3c4c(c2)CCC(=O)N4CCC3)cc1
806 | O=C(O)c1nnn(-c2cccc(Cl)c2)c1C(F)(F)F
1310 | O=C(NCCC1=CCCCC1)C1CCCN(c2nc3ccccc3n(Cc3ccccc3)c2=O)C1 (centres undefined)
1100 | COc1ccc(C)cc1NC(=O)C1CCN(S(C)(=O)=O)c2cc(Cl)ccc2O1 (centres undefined)
774 | O=c1n(Cc2ccccc2Cl)nc2c(S(=O)(=O)N3CCOCC3)cccn12
623 | COc1ccccc1C(=O)N1CCN(c2cnn3c(C4CC4)nnc3c2)CC1
593 | CCC1c2nccn2CCCN1C(=O)c1ccc2c(c1)OCO2 (centres undefined)
872 | O=C(Cc1csc2nc(-c3ccccc3)cn12)NCc1cccc(Br)c1
1130 | CC(C)c1cccc(C(C)C)c1N1C(=O)c2ccc(O)cc2C1=O
1060 | Cc1noc(C2(NC(=O)c3ccc4ccccc4n3)CCCCC2)n1
710 | Cn1c(CN(c2ccc(F)cc2)S(C)(=O)=O)nnc1SCc1nnc(-c2ccccc2)o1
864 | CNC(=O)N1CCCC(c2cccc(C(=O)N3CCN(c4ccc(Cl)cc4)CC3)c2)C1 (centres undefined)

RP-LC retention time [s] | Compound
632 | COc1ccc(C(=O)NCc2ccc3c(c2)ncn3C(C)C)cc1F
973 | COc1ccc(/C=C/c2nn3c(COc4ccc(OC)cc4)nnc3s2)cc1
608 | O=C1CCCN1c1ccc(Cn2cc(-c3nc(-c4cccc(F)c4)no3)ccc2=O)cc1
618 | O=C(CCc1ccc2nc(-c3ccccc3)[nH]c2c1)NC1CCCC1
639 | O=C(CN1C(=O)C2CCCCN2c2ccc(C(=O)N3CCCC3)cc21)NCCCN1CCCCCC1 (centres undefined)
852 | Oc1c(C(c2ccc(F)cc2)N2CCN(c3cccc(Cl)c3)CC2)sc2ncnn12 (centres undefined)
1080 | CCCN1C(=O)c2cc(S(=O)(=O)Nc3cc(F)cc(F)c3)ccc2Oc2cccnc21
896 | Cc1noc(-c2ccc(-n3cnc(C(=O)NC4CCCCCC4)c3)nc2)n1
566 | CCc1cc(N2CCN(C(=O)COc3ccc(F)cc3)CC2)nc2nncn12
961 | COC(=O)[C@@H](N)CSC/C=C(\C)CC/C=C(\C)CCC=C(C)C
691 | CC1CCN(CC2CCN(S(=O)(=O)c3cccc(Cl)c3)CC2)CC1
742 | COc1ccccc1NC(=O)CC(=O)Nc1ccc2nc3n(c(=O)c2c1)CCCCC3
726 | O=C(CC1CCCC1)N1CCC(c2noc(-c3cnccn3)n2)C1 (centres undefined)
738 | Cc1cccc(-c2ncccc2CNS(=O)(=O)c2cc(F)ccc2F)c1
918 | CC(=O)N1c2ccc(S(=O)(=O)N3CCCCCC3)cc2CC1C(=O)NCCc1ccccc1 (centres undefined)
952 | CC(NC(=O)C1(c2ccc(NS(C)(=O)=O)cc2)CCCCC1)c1ccc(F)cc1 (centres undefined)
772 | CCOc1ccccc1NC(=O)N1C[C@@H](F)C[C@H]1C(=O)N1CCCCC1
601 | CN(C)c1ncccc1NC(=O)Nc1ccccc1F
678 | COc1ccccc1NC(=O)c1[nH]c2cc(C)sc2c1CN(C)C
613 | CCOC(=O)Cn1c(C2CCCN2C(=O)CC)nc2ccccc21 (centres undefined)
596 | CC(C)n1c(=O)c(NCc2ccccc2Cl)nc2ccncc21
661 | Cc1cccc(C)c1NC(=O)N1CCC(OC2CCN(Cc3ccccc3)CC2)CC1

Compound | RP-LC retention time [s]
COc1cccc([C@@]2(O)CCCC[C@H]2CN(C)C)c1 | 591
